The source of these data is patent publication US20220098197A1, “SALTS OF HETEROCYCLIC COMPOUND AND USE THEREOF” (priority 2019, published 2022).

Assay [1] relates to neutrophils. Nature of the assay: PGD2-induced neutrophils migration, Boyden chamber assay (Example 1). Type of assay: cell-based, mice. To be noted: pretreatment CT-NA 1 and 10 μM (p<0.01) or OC459; PGD2 1 μM; 4 hrs. The procedure: The mice were intragastrically administered glycogen (1.5%) at the dose range of 20 ml/kg of body weight. 4 hrs later, the mice were euthanized to isolate neutrophils from the peritoneal lavage. The effect of CT-NA on neutrophils migration was detected by using the Boyden chamber assay kit (3 μm pore size). PGD2 was used as a chemoattractant because the activated PGD2/CRTH2 receptors promoted the migration of neutrophils. Initially, the isolated neutrophils (4×10^5) were diluted in 100 μL HBSS and allowed to migrate toward PGD2 (0.1, 1 and 10 μM) for 4 hrs to find out the suitable PGD2 concentration. Then, the isolated neutrophils (4×10^5) were pretreated with CT-NA (1 and 10 μM), and their migration to PGD2 (1 μM) was evaluated by counting the migrated neutrophils. Moreover, another potent CRTH2 inhibitor OC459 was used to countercheck the outcomes of CT-NA.

In assay [2] the test system is neutrophils. Nature of the assay: PGD2-induced neutrophils migration in vitro, Boyden chamber (Example 2). Type of assay: cell-based, mice. The settings on record: pretreatment CT-NA 1 μM or 10 μM, OC459 10 μM; 4 hrs; P<0.01. On the procedure:
The method for isolating neutrophils and testing effect of CT-NA on neutrophils migration was briefly described as follows. 1.5% glycogen was injected intragastrically into mice at a dose of 20 ml/kg body weight. 4 hrs later, the mice were euthanized to isolate neutrophils from the peritoneal lavage. Effect of CT-NA on the migration of neutrophils was detected using the Boyden chamber assay kit (3 um pore size, Billerica, Mass.). PGD2 was used as a chemoattractant because the activated PGD2/CRTH2 receptors promoted the neutrophils migration. Firstly, the isolated neutrophils were inoculated at 4×10^5 cells/ml into the upper side of well of the Boyden chamber, and the lower chamber contained different concentrations of PGD2 (0.1, 1 and 10 μM), and the neutrophils were allowed to migrate towards PGD2 for 4 hrs at 37° C. in order to find out the suitable PGD2 concentration. After evaluation of the suitable PGD2 concentration, the migration of neutrophils pretreated with CT-NA (1 and 10 μM) and OC459 (10 μM), another effective CRTH2 inhibitor, toward PGD2 (1 μM) was assessed for 4 hrs.

As for `Cc1c(Cc2ccc3ccccc3n2)c2cc(F)ccc2n1CC(=O)O` [OC459, reference compound], the PGD2-induced neutrophils migration result with neutrophils [1] was “inhibited”. Moreover, the “neutrophils migration induced by 1 μM PGD2” value in the assay on neutrophils [2] is given as “significantly reduced”.
